Assay results published in patent EP1000062B1, “TRICYCLIC VASOPRESSIN AGONISTS” (Wyeth, priority 1997, dated 1999).

Tested on: Vasopressin V2
Assay: Vasopressin V2 agonist effects of test compounds in normal conscious water-loaded rats
Assay type: in vivo
Details: Sprague-Dawley (CD) rats, oral 10 mg/kg, urine collected for four hours; for Osmolality (% Increase): change in osmolality as percent of control; for Urine Volume (% decrease): vs. control
Protocol: Vasopressin V2 Agonist Effects of Test Compounds in Normal Conscious Water-Loaded Rats:
On the day of test, rats were placed individually into metabolic cages equipped with devices to separate the feces from the urine and containers for collection of urine. Test compound or reference agent was given at an oral dose of 10 mg/kg in a volume of 10 ml /kg. […] Thirty minutes after dosing the test compound, rats were gavaged with water at 30 ml /kg into the stomach using a feeding needle. During the test, rats were not provided with water or food. Urine was collected for four hours after dosing of the test compound. At the end of four hours, urine volume was measured. […] Determinations of Na^+, K^+ and Cl^- ion were carried out using ion specific electrodes in a Beckman SYNCHRON EL-ISE Electrolyte System analyzer. […] In the screening test, two rats were used for each compound. If the difference in the urine volume of the two rats was greater than 50%, a third rat was used.

Compound	Osmolality (% Increase) [%]	Urine Volume (% decrease) [%]
O=C(O)c1ccc(C(=O)N2Cc3cccn3Cc3ccccc32)c(Cl)c1 [Example 78, 3-Chloro-4-(5H,11H-Pyrrolo[2,1-c][1,4]benzodiazepine-10-carbonyl)-benzoic acid]	115	21
NC(=O)c1ccc(C(=O)N2Cc3cccn3Cc3ccccc32)c(Cl)c1 [Example 79, 3-Chloro-4-(5H,11H-pyrrolo[2,1-c][1,4]benzodiazepine-10-carbonyl)-benzamide]	123	38
Cc1n[nH]c(-c2ccc(C(=O)N3Cc4cccn4Cc4ccccc43)c(Cl)c2)n1 [Example 81, [2-Choro-4-(5-methyl-2H-[1,2,4]triazol-3-yl)phenyl]-(5H,11H-pyrrolo[2,1-c][1,4]benzodiazepine-10-carbonyl)-methanone]	490	82
O=C(c1ccc(-c2ncn[nH]2)cc1Cl)N1Cc2cccn2Cc2ccccc21 [Example 83, [2-Chloro-4-(2H-1,2,4-triazol-3-yl)-phenyl]-(5H,11H-pyrrolo[2,1-c][1,4]-benzodiazepin-10-yl)-methanone]	442	85
Cn1ncnc1-c1ccc(C(=O)N2Cc3cccn3Cc3ccccc32)c(Cl)c1 [Example 84, [2-Chloro-4-(2-methyl-2H-[1,2,4]triazol-3-yl)-phenyl]-(5H,11H-pyrrolo [2,1-c][1,4]benzodiazepin-10-carbonyl)-methanone]	291	56
Cc1nc(-c2ccc(C(=O)N3Cc4cccn4Cc4ccccc43)c(Cl)c2)n(C)n1 [Example 85, 4-[(2,5-Dimethyl-2H-[1,2,4]triazol-3-yl)-2-chloro-phenyl]-(5H,11H-pyrrolo[2,1-c][1,4]benzodiazepin-10-carbonyl)-methanone]	436	76
O=C(c1ccc(-c2nnn[nH]2)cc1Cl)N1Cc2cccn2Cc2ccccc21 [Example 86, [2-Chloro-4-(1H-tetrazol-5-yl)-phenyl]-(5H,11H-pyrrolo[2,1-c][1,4]benzodiazepin-10-yl)-methanone]	86	5
Cc1ccn(-c2ccc(C(=O)N3Cc4ccc(CN(C)C)n4Cc4ccccc43)c(Cl)c2)n1 [Example 87, [2-Chloro-4-(3-methyl-pyrazol-1-yl)-phenyl]-(3-dimethylaminomethyl-5H,11H-pyrrolo[2,1-c][1,4]benzodiazepin-10-yl)-methanone]	214	71
Cc1ccn(-c2ccc(C(=O)N3Cc4ccc(Br)n4Cc4ccccc43)c(Cl)c2)n1 [Example 88, (3-Bromo-5H,11H-pyrrolo[2,1-c][1,4]benzodiazepin-10-yl)-[2-chloro-4-(3-methyl-pyrazol-1-yl)-phenyl]-methanone]	226	68
Cc1ccn(-c2ccc(C(=O)N3Cc4cccn4Cc4ccccc43)c(Br)c2)n1 [Example 90]	413	61
O=C(c1ccc(F)cc1F)N1Cc2cccn2Cc2ccccc21 [Example 91, (2,4-Difluoro-phenyl)-(5H,11H-pyrrolo[2,1-c][1,4]benzodiazepin-10-yl)-methanone]	69	22
Cc1ccn(-c2ccc(C(=O)N3Cc4cccn4Cc4ccccc43)c(F)c2)n1 [Example 92, [2-Fluoro-4-(3-methyl-pyrazol-1-yl)-phenyl]-(5H,11H-pyrrolo[2,1-c][1,4]-benzodiazepin-10-yl)-methanone]	454	69
Cc1ccn(-c2ccc(C(=O)N3Cc4ccnn4Cc4ccccc43)c(C(F)(F)F)c2)n1 [Example 95, [4-(3-Methylpyrazol-1-yl)-2-trifluoromethylphenyl]-[5H,11H-pyrazolo[5,1-c]-[1,4]benzodiazepin-10-yl)-methanone]	300	68
